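Results reflect a 48-hour exposure of cells in 96-well plates to compound at five concentrations. GI50 marks 50% less growth.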 Calls of active or inactive are those of the source. Cut-off read from the data, not from the text of the source: active = GI50 up to about 1.1 µM and inactive = higher.
Experiments:
Assay in all cases: NCI-60 cell line screen, 48 h
A549 = test system: A549
DU-145 = test system: DU-145
HCC 2998 = test system: HCC 2998
HCT-116 = test system: HCT-116
LOX IMVI = test system: LOX IMVI
NCI-H23 = test system: NCI-H23
NCI-H460 = test system: NCI-H460
OVCAR-3 = test system: OVCAR-3
OVCAR-4 = test system: OVCAR-4
PC-3 = test system: PC-3
SF-295 = test system: SF-295
SF-539 = test system: SF-539
SK-MEL-2 = test system: SK-MEL-2
SK-OV-3 = test system: SK-OV-3
SNB-19 = test system: SNB-19
HOP-62 = test system: HOP-62
KM12 = test system: KM12
RPMI-8226 = test system: RPMI-8226
SR = test system: SR
NCI-H522 = test system: NCI-H522

Structure (SMILES)	GI50 (A549)	GI50 (DU-145)	GI50 (HCC 2998)	GI50 (HCT-116)	GI50 (LOX IMVI)	GI50 (NCI-H23)	GI50 (NCI-H460)	GI50 (OVCAR-3)	GI50 (OVCAR-4)	GI50 (PC-3)	GI50 (SF-295)	GI50 (SF-539)	GI50 (SK-MEL-2)	GI50 (SK-OV-3)	GI50 (SNB-19)	GI50 (HOP-62)	GI50 (KM12)	GI50 (RPMI-8226)	GI50 (SR)	GI50 (NCI-H522)
Cc1cc(C)n2c(nc3ccccc32)c1C#N	> 100 µM (inactive)	> 100 µM (inactive)	> 100 µM (inactive)	54.1 µM (inactive)	> 100 µM (inactive)	> 100 µM (inactive)	> 10 µM (inactive)	> 100 µM (inactive)	10.8 µM (inactive)	> 100 µM (inactive)	> 100 µM (inactive)	> 100 µM (inactive)	> 100 µM (inactive)	> 100 µM (inactive)	> 100 µM (inactive)					
COc1cc(/C=C/C(=O)c2ccc(NS(=O)(=O)c3cc([N+](=O)[O-])ccc3C)cc2)cc(OC)c1OC	3.81 µM (inactive)	3.13 µM (inactive)		2.38 µM (inactive)	3.29 µM (inactive)	3.05 µM (inactive)		3.15 µM (inactive)	3.19 µM (inactive)	5.9 µM (inactive)	4.61 µM (inactive)	2.18 µM (inactive)	2.67 µM (inactive)	4.01 µM (inactive)	3.85 µM (inactive)	2.99 µM (inactive)	2.62 µM (inactive)	1.96 µM (inactive)	1.82 µM (inactive)	
COc1ccc(/C=C/c2nsc(/C=C/c3ccc(OC)cc3)n2)cc1	> 100 µM (inactive)	> 100 µM (inactive)		> 100 µM (inactive)	55.1 µM (inactive)		24.9 µM (inactive)	> 100 µM (inactive)	> 100 µM (inactive)	48.5 µM (inactive)	> 100 µM (inactive)	> 100 µM (inactive)	> 100 µM (inactive)	> 100 µM (inactive)	> 100 µM (inactive)	> 100 µM (inactive)	> 100 µM (inactive)	28.7 µM (inactive)	27.3 µM (inactive)	39.6 µM (inactive)
CC(=O)OC1CC2(C)C(=CC1C1SCCS1)CCC1C2CCC2(C)C(OC(C)=O)CCC12 (stereo not drawn)	> 100 µM (inactive)	> 100 µM (inactive)		> 100 µM (inactive)	> 100 µM (inactive)	> 100 µM (inactive)	> 100 µM (inactive)	> 100 µM (inactive)	> 100 µM (inactive)	> 100 µM (inactive)	23.4 µM (inactive)	53.1 µM (inactive)	45.4 µM (inactive)	27.9 µM (inactive)	37.1 µM (inactive)	97.5 µM (inactive)	> 100 µM (inactive)	> 100 µM (inactive)	> 100 µM (inactive)	37 µM (inactive)
O=C1C=Cc2c1csc2Br	41.5 µM (inactive)	> 100 µM (inactive)		43.3 µM (inactive)	25.5 µM (inactive)	33 µM (inactive)	> 100 µM (inactive)	71 µM (inactive)	70.8 µM (inactive)	65.3 µM (inactive)	> 100 µM (inactive)		> 100 µM (inactive)	> 100 µM (inactive)	70.3 µM (inactive)	> 100 µM (inactive)	50.8 µM (inactive)		10.6 µM (inactive)	18.7 µM (inactive)
Cc1ccc2nc3ccccc3c(C3C4C(=O)N(c5ccc(Br)cc5Cl)C(=O)C4ON3C(C(N)=O)c3ccccc3)c2c1 (stereo not drawn)	> 25 µM (inactive)	> 25 µM (inactive)		13.7 µM (inactive)	22.8 µM (inactive)	0.321 µM (active)	> 25 µM (inactive)	> 25 µM (inactive)	19.7 µM (inactive)	> 25 µM (inactive)	> 25 µM (inactive)	11.8 µM (inactive)	18.1 µM (inactive)	> 25 µM (inactive)	> 25 µM (inactive)	> 25 µM (inactive)	> 25 µM (inactive)		7.26 µM (inactive)	13.6 µM (inactive)
COC(=O)/C=C\n1c(C)cc(=O)[nH]c1=O	> 100 µM (inactive)		> 100 µM (inactive)	> 100 µM (inactive)		> 100 µM (inactive)	> 100 µM (inactive)	> 100 µM (inactive)	> 100 µM (inactive)	> 100 µM (inactive)	> 100 µM (inactive)	> 100 µM (inactive)	> 100 µM (inactive)	67.5 µM (inactive)	> 100 µM (inactive)	> 100 µM (inactive)	> 100 µM (inactive)	> 100 µM (inactive)	> 100 µM (inactive)	> 100 µM (inactive)
C/C(=C\COP(=O)(O)OP(=O)(O)O)CCCCCCOCc1ccccc1	> 100 µM (inactive)	> 100 µM (inactive)	> 100 µM (inactive)	> 100 µM (inactive)	> 100 µM (inactive)	> 100 µM (inactive)	> 100 µM (inactive)	> 100 µM (inactive)	> 100 µM (inactive)		> 100 µM (inactive)	> 100 µM (inactive)		> 100 µM (inactive)	> 100 µM (inactive)	> 100 µM (inactive)	> 100 µM (inactive)	> 100 µM (inactive)	> 100 µM (inactive)	> 100 µM (inactive)
CC(=O)O[C@H]1C(=O)[C@@]2(C)C([C@H](OC(=O)c3ccccc3)[C@]3(O)C[C@H](OC(=O)[C@H](O)[C@@H](NC(=O)c4ccc(Cl)cc4)c4ccccc4)C(C)=C1C3(C)C)C1(OC(C)=O)CO[C@@H]1C[C@@H]2O (stereo partly drawn)	0.168 µM (active)	0.0865 µM (active)	< 0.01 µM (active)	0.0499 µM (active)	< 0.01 µM (active)	0.0738 µM (active)	0.0668 µM (active)	0.0346 µM (active)	7.21 µM (inactive)	0.0615 µM (active)	0.6 µM (active)	0.0689 µM (active)	0.0274 µM (active)	0.0986 µM (active)	0.137 µM (active)	0.474 µM (active)	0.0466 µM (active)	< 0.01 µM (active)		0.0775 µM (active)
CCOC(=O)c1cc(I)c(-c2cc(C)no2)n1C	61.7 µM (inactive)	89.9 µM (inactive)		40.4 µM (inactive)	37.3 µM (inactive)	44.1 µM (inactive)	76.7 µM (inactive)	38.4 µM (inactive)	21.8 µM (inactive)	38.5 µM (inactive)	55.7 µM (inactive)	> 100 µM (inactive)	> 100 µM (inactive)	> 100 µM (inactive)	> 100 µM (inactive)		21.1 µM (inactive)	19.3 µM (inactive)		33.4 µM (inactive)
O=C(NCCCN(CCCCN(CCCNC(=O)C(F)(F)F)Cc1ccccc1)Cc1ccccc1)C(F)(F)F	24.2 µM (inactive)	19.7 µM (inactive)	4.24 µM (inactive)	11.5 µM (inactive)	8.43 µM (inactive)	15.5 µM (inactive)	10.4 µM (inactive)		16.8 µM (inactive)		16.5 µM (inactive)	13.5 µM (inactive)		20.1 µM (inactive)	13.7 µM (inactive)		13.2 µM (inactive)	16 µM (inactive)		9.51 µM (inactive)
CCc1ccccc1NC(=O)C(=O)CC(=O)c1sc(Nc2ccccc2Cl)nc1C	24 µM (inactive)	55.1 µM (inactive)	30.1 µM (inactive)	17.9 µM (inactive)	19.7 µM (inactive)	30.3 µM (inactive)	21.2 µM (inactive)	19.5 µM (inactive)	36.8 µM (inactive)	26.9 µM (inactive)	28.2 µM (inactive)	24.4 µM (inactive)	24.4 µM (inactive)	24.2 µM (inactive)	39.1 µM (inactive)	31.6 µM (inactive)	29.6 µM (inactive)	19.2 µM (inactive)		18.1 µM (inactive)
Nc1nc(Nc2ccccc2)c2[nH]cnc2n1	> 100 µM (inactive)	77.3 µM (inactive)	86.3 µM (inactive)	69 µM (inactive)	77.6 µM (inactive)	> 100 µM (inactive)		89.9 µM (inactive)	> 100 µM (inactive)	> 100 µM (inactive)	> 100 µM (inactive)	> 100 µM (inactive)	66.2 µM (inactive)	84.5 µM (inactive)	> 100 µM (inactive)	> 100 µM (inactive)	35.6 µM (inactive)	53.7 µM (inactive)		65.5 µM (inactive)
COc1cccc(Nc2nc(-c3cccs3)nc3cc(OC)c(OC)cc23)c1	29 µM (inactive)	55.6 µM (inactive)		26.4 µM (inactive)		32.4 µM (inactive)	28.8 µM (inactive)	24.3 µM (inactive)	41.3 µM (inactive)	27.9 µM (inactive)	23.4 µM (inactive)	20.9 µM (inactive)	35.8 µM (inactive)	53 µM (inactive)	28.4 µM (inactive)	27.8 µM (inactive)	30.4 µM (inactive)	13.2 µM (inactive)	11 µM (inactive)	18.9 µM (inactive)
COc1cccc2c1CCc1sc(CN3CCN(C)CC3)nc1-2	> 100 µM (inactive)	> 100 µM (inactive)	49.4 µM (inactive)	57.7 µM (inactive)		84.7 µM (inactive)	54.7 µM (inactive)	> 100 µM (inactive)	> 100 µM (inactive)	44.8 µM (inactive)	53 µM (inactive)		> 100 µM (inactive)	> 100 µM (inactive)	> 100 µM (inactive)	> 100 µM (inactive)	80.2 µM (inactive)	30.1 µM (inactive)		52.2 µM (inactive)
CC(=O)CCC(=O)CC(O)(C(F)(F)F)C(F)(F)F	20.6 µM (inactive)	20.5 µM (inactive)	18.4 µM (inactive)	16.9 µM (inactive)		21.2 µM (inactive)	20.7 µM (inactive)		19.7 µM (inactive)		12.4 µM (inactive)	16.6 µM (inactive)		> 10 µM (inactive)	15.9 µM (inactive)	17.9 µM (inactive)	15.9 µM (inactive)	17.2 µM (inactive)	16.4 µM (inactive)	

— ChEMBL document CHEMBL1201862, “PubChem BioAssay data set” (2004)
